From ChEMBL document CHEMBL5728935, “Heterocycles useful as anti-cancer agents” (2022)

Experiments:
CDK2/Cyclin A2 = CDK2/Cyclin A2 (Homo sapiens, UniProt P24941); test: (§1) Kinase Assay: In vitro enzymatic activity of the CDK isoforms CDK2/CycA2, CDK4/CycD3 and CDK6/cycD3 were measured using Mobility Shift Assay that monitors phosphorylation ratio of FAM labelled peptide (Peptide 18 for CDK2/CycA2, Peptide 8 for CDK4/CycD3 and CDK6/cycD3). CDK2/CycA2 and CDK6/cycD3 were assayed under buffer conditions in the presence of 50 mM HEPES (pH 7.5), 10 mM MgCl2, 0.0015% Brij-35, and 2 mM dithiothreitol, CDK4/CycD3 with buffer condition of 20 mM HEPES (pH 7.5), 10 mM MgCl2, 0.01% Triton X-100, and 2 mM dithiothreitol. Prepare compounds to 50× of the final desired highest inhibitor concentration by 100% DMSO and serial dilution in 3-fold for total of 10 concentrations. […] After assay for 60 min, 180 min, 60 min respectively at 28° C., reactions were terminated with stop solution (50 mM EDTA, 0.015% Brij-35, 0.2% Coating Reagent #3 and 100 mM HEPES (pH 7.5)). Collect conversion on Caliper EZ Reader.; assay type: protein-complex assay
CDK4/Cyclin D3 = CDK4/Cyclin D3 (Homo sapiens, UniProt P11802+P30281); test: as §1; assay type: protein-complex assay
CDK4/Cyclin D3, sequence (P11802 whole entry): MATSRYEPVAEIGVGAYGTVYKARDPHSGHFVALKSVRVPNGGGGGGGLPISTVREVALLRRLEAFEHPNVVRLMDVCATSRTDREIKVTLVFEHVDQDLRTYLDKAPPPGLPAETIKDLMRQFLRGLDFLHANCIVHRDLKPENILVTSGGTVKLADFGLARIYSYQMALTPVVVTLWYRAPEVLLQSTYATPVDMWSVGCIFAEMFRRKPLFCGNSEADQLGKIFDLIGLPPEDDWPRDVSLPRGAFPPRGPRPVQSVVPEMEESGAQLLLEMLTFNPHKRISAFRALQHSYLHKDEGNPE
CDK4/Cyclin D3, sequence (P30281 whole entry): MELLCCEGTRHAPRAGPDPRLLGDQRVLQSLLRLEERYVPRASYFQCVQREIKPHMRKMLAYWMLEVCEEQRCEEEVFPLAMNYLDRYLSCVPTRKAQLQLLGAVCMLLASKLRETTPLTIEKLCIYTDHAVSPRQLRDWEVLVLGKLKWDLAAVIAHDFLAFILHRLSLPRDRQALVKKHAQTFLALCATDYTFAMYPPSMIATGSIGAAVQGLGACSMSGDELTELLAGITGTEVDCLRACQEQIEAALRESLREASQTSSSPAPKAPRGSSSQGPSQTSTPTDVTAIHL

CC(=O)c1c(C)c2cnc(Nc3ccc4c(c3)OC[C@@H]3CNCCN43)nc2n(C2CCCC2)c1=O
IC50 (CDK2/Cyclin A2): < 10 nM

CC(=O)c1c(C)c2cnc(Nc3ccc(N4CC5CNCC(C4)C5(F)F)cn3)nc2n(C2CCCC2)c1=O
IC50 (CDK4/Cyclin D3): < 100 nM

CC(=O)c1c(C)c2cnc(Nc3ccc4c(c3)OC[C@H]3CNCCN43)nc2n(C2CCCC2)c1=O
IC50 (CDK2/Cyclin A2): < 10 nM
